Measurements as given in patent US20080287429A1 (Z & Z Medical Holdings, Inc., priority 2007, published 2008).
Read-outs that look alike come from different tables or passages of the source.

Key:
[1] = tested on: atherosclerotic plaque in pig artery; test: Solubilization of atherosclerotic plaque material in ex vivo samples of pig artery; conditions: 50 mg/mL DCA bath, after 5 hours
Protocol: Early in the treatment, on removal of the sample from the bath a clear, viscous, column of fluid extended from the sample. This column of fluid continued to be apparent when samples were evaluated up to about 4 or 5 hours, after which the fluid column was no longer noted. Without wishing to be held to any one theory of operation, it was concluded that the clear fluid comprised components of the plaque. […] The sample was continuously exposed for a period of 8 days.

[2] = wild type mice, same amount of dietary HDCA; cited from earlier work
[3] = fed to C57BL/6 LDL r-KO knockout mice, relative to mice not provided HDCA; cited from earlier work
[4] = tested on: sandwich culture rat hepatocyte; conditions: cited from earlier work
[5] = tested on: sandwich culture rat hepatocytes; conditions: cited from earlier work
[6] = tested on: sandwich culture human hepatocytes; conditions: cited from earlier work
[7] = tested on: hepatocellular uptake of bile acids; conditions: cited from earlier work
[8] = in vivo; cited from earlier work
[9] = 40 mg/day rosuvastatin, cited from earlier work
[10] = tested on: bile acid uptake by hepatocyte receptors; conditions: 1 mmol/kg, cited from earlier work

Structure (SMILES): C[C@H](CCC(=O)O)[C@H]1CC[C@H]2[C@@H]3CC[C@@H]4C[C@H](O)CC[C@]4(C)[C@H]3C[C@H](O)[C@]12C [DCA, deoxycholic acid]
- plaque volume decreased (macroscopic assessment) [1]: about 70%

Structure (SMILES): C[C@H](CCC(=O)O)[C@H]1CC[C@H]2[C@@H]3C[C@H](O)[C@@H]4C[C@H](O)CC[C@]4(C)[C@H]3CC[C@]12C [HDCA, hyodeoxycholic acid]
- plasma levels [2]: up to 50 μM
- rate of formation of atherosclerotic plaque [3]: reduced rate of formation

Structure (SMILES): COc1ccccc1Oc1c(NS(=O)(=O)c2ccc(C(C)(C)C)cc2)nc(-c2ncccn2)nc1OCCO [bosentan]
- hepatic uptake and excretion of bile acids from the bile pole of the hepatocyte ([4]; 100 μM): inhibit

Structure (SMILES): O=C1Nc2ccc(Cl)cc2[C@@](C#CC2CC2)(C(F)(F)F)O1 [efavirenz]
- bile acid transport ([5]; 32 μM): inhibit
- bile acid transport ([6]; 32 μM): inhibit

Structure (SMILES): CC(=O)N1CCN(c2ccc(OCC3COC(Cn4ccnc4)(c4ccc(Cl)cc4Cl)O3)cc2)CC1 (stereo not drawn) [ketoconazole]
- serum levels of cholic acid, taurocholic acid, and chenodeoxycholic acid ([7]; 25 mg/kg): increase
- serum levels of cholic, taurocholic, chenodeoxycholic, glycocholic, glycochenodeoxycholic, glycodeoxycholic, deoxycholic and taurochenodeoxycholic acid ([7]; 50 mg/kg): increase
- hepatocellular uptake of bile acids ([7]; dose related, relatively specific): strongly inhibiting
- side effect [8]: hepatotoxicity

Structure (SMILES): CC(C)c1nc(CN(C)C(=O)N[C@H](C(=O)N[C@@H](Cc2ccccc2)C[C@H](O)[C@H](Cc2ccccc2)NC(=O)OCc2cncs2)C(C)C)cs1 [ritonavir]
- bile acid transport ([5]; 28 μM): inhibit
- bile acid transport ([6]; 28 μM): inhibit

Structure (SMILES): CC(C)c1nc(N(C)S(C)(=O)=O)nc(-c2ccc(F)cc2)c1/C=C/[C@@H](O)C[C@@H](O)CC(=O)O [rosuvastatin]
- reduction with respect to normalized total atheroma volume ([9]; after 2 years, SD=11.1): 6.7%
- plaque volume reduced, most diseased segments of vessels examined ([9]; after 2 years, SD=13.7): 8.5%
- modulating LDL, HDL, and triglyceride levels [9]: particularly effective

Structure (SMILES): ClC=C(Cl)Cl [trichloroethylene]
- serum bile acids [10]: serum accumulation of bile acids
- bile acid uptake by hepatocyte receptors ([10]; rather than actual cell damage): reversible physiological interference

Structure (SMILES): Cc1c(C)c2c(c(C)c1O)CCC(C)(COc1ccc(CC3SC(=O)NC3=O)cc1)O2 (stereo not drawn) [troglitazone]
- hepatic uptake and excretion of bile acids from the bile pole of the hepatocyte ([4]; 10 μM): inhibit
